Experimental data from PubChem BioAssay (NCI).
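1) Cells in 96-well plates. 2) Compound, 48 h, 5 concentrations. 3) Linear interpolation between surrounding doses. 4) Unreached endpoint = highest concentration. TGI is the concentration that stops growth completely.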

How the values were obtained:
Experiment in all cases: DTP human tumour cell line panel, 48 h
[1] = test system: M19-MEL melanoma
[2] = test system: KM20L2 colon
[3] = test system: DMS 114 small cell lung
[4] = test system: SF-539 CNS
[5] = test system: SF-268 CNS
[6] = test system: HOP-18 NSCLC
[7] = test system: NCI-H460 lung
[8] = test system: OVCAR-4 ovarian
[9] = test system: T-47D breast
[10] = test system: SK-MEL-28 melanoma
[11] = test system: SW-620 colon
[12] = test system: NCI-H23 lung
[13] = test system: NCI-H226 lung
[14] = test system: K-562 leukemia
[15] = test system: HCT-15 colon
[16] = test system: HCT-116 colon
[17] = test system: U251 CNS
[18] = test system: IGROV1 ovarian
[19] = test system: MALME-3M melanoma
[20] = test system: HOP-92 NSCLC
[21] = test system: HOP-62 NSCLC
[22] = test system: MOLT-4 leukemia
[23] = test system: A549 NSCLC
[24] = test system: UO-31 renal
[25] = test system: SNB-19 CNS
[26] = test system: BT-549 breast
[27] = test system: 786-0 renal
[28] = test system: LXFL 529 NSCLC
[29] = test system: UACC-62 melanoma
[30] = test system: DLD-1 colon
[31] = test system: RPMI-8226 leukemia
[32] = test system: SF-295 CNS
[33] = test system: PC-3 prostate
[34] = test system: MDA-MB-435
[35] = test system: DMS 273 small cell lung
[36] = test system: A498 renal
[37] = test system: NCI/ADR-RES ovarian
[38] = test system: TK-10 renal
[39] = test system: HL-60(TB) leukemia
[40] = test system: NCI-H522 lung
[41] = test system: CCRF-CEM leukemia
[42] = test system: OVCAR-3 ovarian
[43] = test system: ACHN renal
[44] = test system: HT29 colon
[45] = test system: MDA-MB-231 breast
[46] = test system: MDA-N
[47] = test system: RXF-631 renal
[48] = test system: SNB-75 CNS
[49] = test system: SR leukemia
[50] = test system: COLO 205 colon
[51] = test system: OVCAR-8 ovarian
[52] = test system: OVCAR-5 ovarian
[53] = test system: SK-OV-3 ovarian
[54] = test system: SK-MEL-2 melanoma
[55] = test system: SK-MEL-5 melanoma
[56] = test system: UACC-257 melanoma
[57] = test system: SN12C renal
[58] = test system: SNB-78 CNS
[59] = test system: MCF7 breast
[60] = test system: CAKI-1 renal
[61] = test system: KM12 colon
[62] = test system: DU-145 prostate
[63] = test system: HS 578T breast
[64] = test system: EKVX NSCLC
[65] = test system: HCC-2998 colon
[66] = test system: M14 melanoma
[67] = test system: LOX IMVI melanoma
[68] = test system: RXF 393 renal

Question: How did the TGI [1] turn out when `O=C1C2C3C=CC(C2C(=O)N1CN1CCOCC1)C1C2C(=O)N(CN4CCOCC4)C(=O)C2C31` (stereo not drawn) was run?
Answer: 40.5 µM

Question: What about the TGI [2] of the same molecule?
Answer: 63.1 µM

Question: And the TGI [3]?
Answer: 34.1 µM

Question: What about the TGI [4] of the same molecule?
Answer: > 79.6 µM

Question: And the TGI [5]?
Answer: > 64 µM

Question: And the TGI [6]?
Answer: 60.2 µM

Question: What about the TGI [7] of the same molecule?
Answer: > 57.5 µM

Question: And the TGI [8]?
Answer: > 60.4 µM

Question: What about the TGI [9] of the same molecule?
Answer: > 100 µM

Question: And the TGI [10]?
Answer: > 66 µM

Question: What about the TGI [11] of the same molecule?
Answer: > 69.8 µM

Question: What about the TGI [12] of the same molecule?
Answer: > 66.8 µM

Question: And the TGI [13]?
Answer: > 84.3 µM

Question: What about the TGI [14] of the same molecule?
Answer: > 79.3 µM

Question: And the TGI [15]?
Answer: > 60.1 µM

Question: What about the TGI [16] of the same molecule?
Answer: > 62.8 µM

Question: What about the TGI [17] of the same molecule?
Answer: > 63.2 µM

Question: What about the TGI [18] of the same molecule?
Answer: > 94.6 µM

Question: What about the TGI [19] of the same molecule?
Answer: > 100 µM

Question: What about the TGI [20] of the same molecule?
Answer: > 93.8 µM

Question: And the TGI [21]?
Answer: > 100 µM

Question: And the TGI [22]?
Answer: 53.3 µM

Question: And the TGI [23]?
Answer: > 86.9 µM

Question: And the TGI [24]?
Answer: > 84.6 µM

Question: And the TGI [25]?
Answer: > 78.9 µM

Question: And the TGI [26]?
Answer: > 100 µM

Question: And the TGI [27]?
Answer: > 60.9 µM

Question: And the TGI [28]?
Answer: 36.1 µM

Question: What about the TGI [29] of the same molecule?
Answer: > 63 µM

Question: And the TGI [30]?
Answer: > 100 µM

Question: What about the TGI [31] of the same molecule?
Answer: > 71.9 µM

Question: What about the TGI [32] of the same molecule?
Answer: 98.9 µM

Question: And the TGI [33]?
Answer: > 100 µM

Question: And the TGI [34]?
Answer: > 100 µM

Question: What about the TGI [35] of the same molecule?
Answer: 33.3 µM

Question: What about the TGI [36] of the same molecule?
Answer: > 100 µM

Question: And the TGI [37]?
Answer: > 100 µM

Question: And the TGI [38]?
Answer: > 93.4 µM

Question: And the TGI [39]?
Answer: > 59.5 µM

Question: And the TGI [40]?
Answer: > 55.2 µM

Question: And the TGI [41]?
Answer: 57.9 µM

Question: What about the TGI [42] of the same molecule?
Answer: > 77.8 µM

Question: And the TGI [43]?
Answer: > 91.5 µM

Question: And the TGI [44]?
Answer: > 100 µM

Question: What about the TGI [45] of the same molecule?
Answer: > 100 µM

Question: And the TGI [46]?
Answer: > 100 µM

Question: What about the TGI [47] of the same molecule?
Answer: 74.9 µM

Question: And the TGI [48]?
Answer: > 73.2 µM

Question: And the TGI [49]?
Answer: > 100 µM

Question: What about the TGI [50] of the same molecule?
Answer: > 56.9 µM

Question: What about the TGI [51] of the same molecule?
Answer: > 69.2 µM

Question: What about the TGI [52] of the same molecule?
Answer: > 92.7 µM

Question: And the TGI [53]?
Answer: > 100 µM

Question: And the TGI [54]?
Answer: > 61.1 µM

Question: And the TGI [55]?
Answer: > 58 µM

Question: What about the TGI [56] of the same molecule?
Answer: > 71.5 µM

Question: And the TGI [57]?
Answer: > 64.4 µM

Question: What about the TGI [58] of the same molecule?
Answer: > 100 µM

Question: And the TGI [59]?
Answer: > 100 µM

Question: And the TGI [60]?
Answer: > 100 µM

Question: What about the TGI [61] of the same molecule?
Answer: > 63.4 µM

Question: And the TGI [62]?
Answer: > 100 µM

Question: What about the TGI [63] of the same molecule?
Answer: > 100 µM

Question: What about the TGI [64] of the same molecule?
Answer: > 100 µM

Question: What about the TGI [65] of the same molecule?
Answer: > 61.2 µM

Question: What about the TGI [66] of the same molecule?
Answer: > 57.2 µM

Question: And the TGI [67]?
Answer: > 60.9 µM

Question: And the TGI [68]?
Answer: > 65.2 µM
